The values that follow come from PMC12131194, “Rational design, synthesis, and evaluation of novel polypharmacological compounds targeting NaV1.5, KV1.5, and K2P channels for atrial fibrillation” (The Journal of Biological Chemistry, 2025).

Like-named read-outs stand apart in the source and are kept apart here.

One data set deals with TASK-1. On the set-up: method as in PMID 21946151. Conditions: HEK-293 cells; ref [38]; read-out: Reported IC50 TASK-1; cited from earlier work.
A further data set deals with KV1.5. Set-up: method as in PMID 33817777. To be noted: X. laevis oocytes, ref [15], read-out: Reported IC50 KV1.5, cited from earlier work.
In data set [1] the test system is NaV1.5. Conditions: X. laevis oocytes, racemic (R/S) compound; ref [39]; read-out: Reported IC50 NaV1.5; cited from earlier work.
A further data set deals with T1, h KV1.5 (Homo sapiens, UniProt P22460).
T1 construct: h KV1.5 (KCNA5, NM_002234); expressed in transfected cells; host or cells: Xenopus laevis oocytes injected with cRNA
The data set can be described thus: TEVC recordings in X. laevis oocytes, KV1.5. The data set is classed as cell-based. Conditions: 100 μM, +40 mV, oocytes, mean ± SD. As to the method:
(§1) The two-electrode voltage clamp (TEVC) technique was used for electrophysiology tests. Channels were expressed in Xenopus laevis oocytes. The initial channel-blocking potential was assessed at 100 μM for the 10 synthesized compounds on TASK-1 and KV1.5 channels.
(§2) To obtain X. laevis oocytes, the frogs were anesthetized with 2 g/L of tricaine methanesulfonate, and the ovarian lobes were mechanically separated with forceps. The oocytes were incubated for 120 min in an OR2 solution containing in mM: NaCl 82.5, KCl 2, MgCl2 1, HEPES 5 (pH 7.5) supplemented with 2 mg/ml of collagenase II (Sigma) to remove residual connective tissue and obtain individual oocytes. Subsequently, the oocytes were washed with a ND96 solution containing in mM: NaCl 96, KCl 2, CaCl2 1.8, MgCl2 1, HEPES 5 (pH 7.5, adjusted with NaOH) and stored at 18 °C in ND96 solution supplemented with 1 ml of gentamicin (50 mg/L), sodium pyruvate (275 mg/L) and (90 mg/L) theophylline (inhibits further oocyte maturation) before and after RNA injection.
(§3) In order to overexpress the channel in the oocyte, each of the channels to be measured was subcloned (complementary DNA (cDNA); human TASK-1 (KCNK3, NM_002246), h KV1.5 (KCNA5, NM_002234), h NaV1.5 (hH1, M77235), TASK-4/TALK-2 (KCNK17, NM_AF358910), TREK-1 (KCNK2, AF004711) and Kir2.1 (KCNJ2, NM_017296) into pSGEM, pBF1 or pSP64 expression vector, and the cDNA was linearized with NheI or MluI. Complementary RNA (cRNA) was synthesized with the mMESSAGE mMACHINE-Kit (Ambion). The quality of the cRNA was tested on an agarose gel by electrophoresis. cRNA was quantified using a UV-Vis spectrophotometer (NanoDrop 2000). Subsequently, the channel was transfected in the oocytes in stages V and VI, for which […] (TASK-1, KV1.5 or TREK-1), 10 ng (NaV1.5 or TASK-4) o 2.5 ng (Kir2.1) per oocyte of cRNA was injected with a NanojectII microinjector (Drummond Scientific). The oocytes were stored in 24-well plates for 24 to 48 h at 18 °C. After this time, the overexpression of each channel was monitored through electrophysiology.
(§4) Two-electrode voltage clamp measurements were performed 24 or 48 h after cRNA injection at room temperature (20–22 °C) in ND96 recording solution with a TurboTEC-10CD (npi) amplifier and a Digidata 1550B (for TASK-1 and KV1.5) and 1440A (for NaV1.5) A/D converter from Axon Instruments. Micropipettes were fabricated from GB 150 TF-8P borosilicate glass capillaries (Science Products) elongated in a DMZ-Universal Puller (Zeitz, Germany). […] ND96 was used as bath solution. Data acquisition was performed using Clampex 10 software (Axon Instruments), and data were analyzed with ClampFit 10 (Axon Instruments) and Origin 7 (Origin Lab Corporation).
(§5) For compound inhibition testing, from a holding potential of −80 mV a first test pulse to 0 mV of 1 s duration was followed by a repolarization step at −80 mV for 1 s, directly followed by another 1 s test pulse at +40 mV. The sweep time interval was 10 s for KV1.5 and TASK-1 channels. For the NaV1.5 channel, the block was analyzed with voltage steps from a holding potential of −80 mV. A first depolarizing pulse to −30 mV of 50 ms duration was applied, followed by a 5 ms step to −80 mV. The sweep time interval was 5 s. The compounds were applied at different concentrations to determine the half-maximal inhibitory concentration (IC50), using a fit to the Hill equation.
(§6) To test for a putative voltage-dependence of the block by the compound 6f in KV1.5, a 1.5 s voltage step protocol from −80 to +80 mV with +20 mV increments was used. The holding potential was −80 mV and the sweep time interval was 10 s. Currents were analyzed at the end of the voltage pulse. For TASK-1, voltage-dependence of block was probed using a high-potassium solution (KD96) containing in mM: KCl 96, NaCl 2, CaCl2 1.8, MgCl2 1, HEPES 5, (pH 7.5, adjusted with KOH). From a holding potential of 0 mV, voltage was stepped from −80 mV to +80 mV for 1.5 s in +20 mV steps every 10 s. […]

Another data set deals with human TASK-1 (Homo sapiens, UniProt O14649). Nature of the data set: TEVC recordings in X. laevis oocytes, TASK-1. Format: cell-based. On the set-up: human TASK-1 (KCNK3, NM_002246); expressed in transfected cells; host or cells: Xenopus laevis oocytes injected with cRNA. To be noted: 100 μM, +40 mV, oocytes, mean ± SD. Here is the method: as §1, §2, §3, §4, §5, §6

The next data set deals with T2, h NaV1.5 (Homo sapiens, UniProt Q14524, R1027Q).
T2 construct: expressed in transfected cells; host or cells: Xenopus laevis oocytes injected with cRNA
Nature of the data set: TEVC recordings in X. laevis oocytes, NaV1.5. The data set is classed as cell-based. To be noted: 100 μM, −30 mV, oocytes, mean ± SD. Here is the method: as §2, §3, §4, §5
To test for a putative voltage-dependence of the block by the compound 6f in KV1.5, a 1.5 s voltage step protocol from −80 to +80 mV with +20 mV increments was used. The holding potential was −80 mV and the sweep time interval was 10 s. Currents were analyzed at the end of the voltage pulse. For TASK-1, voltage-dependence of block was probed using a high-potassium solution (KD96) containing in mM: KCl 96, NaCl 2, CaCl2 1.8, MgCl2 1, HEPES 5, (pH 7.5, adjusted with KOH). From a holding potential of 0 mV, voltage was stepped from −80 mV to +80 mV for 1.5 s in +20 mV steps every 10 s. To determine the current-voltage relationship of the NaV1.5 channel, the voltage was stepped for 50 ms from a holding potential of −80 mV to −70 mV to +80 mV in +10 mV increments every 5 s. The peak currents were subsequently plotted against the respective applied voltages.

A further data set has as its system human erythrocytes. Nature of the data set: Hemolysis assay. The data set is classed as cell-based. To be noted: 0.2–400 μM, 2 hours, 37 °C. As to the method:
To evaluate cytotoxicity, the hemolysis of the compounds with the best simultaneous blocking activity on the channels (6e, 6f, 7a, 7b and 7c) was considered, modifying the protocol of Chen 2018 ([112]). Thus, non-heparinized human blood was collected. Erythrocytes were washed three times in 1× PBS (phosphate-buffered saline: NaCl, 8 g/L; KCl, 0.2 g/L; Na2HPO4, 1.44 g/L; and KH2PO4, 0.24 g/L; pH 7.4) and then used to prepare a 3% red blood cell (RBC) suspension. The assay was performed in a 96-well polypropylene microplate.
The compounds were prepared from 200 mM stock solutions in DMSO. Subsequently, 1:2 serial dilutions were made in 1× PBS, with final concentrations from 400 to 0.2 μM to a final volume of 200 μl per well. The microplate was incubated for 2 h at 37 °C and centrifuged at 3400 rpm for 5 min. Finally, 100 μl of the supernatant was transferred and measured in a 96-well plate. Hemoglobin release was monitored by photometric analysis of the supernatant at 540 nm using an Epoch Microplate Spectrophotometer (BioTek Instruments, Inc. Winooski, Vermont 05404-0998).
A 3% RBC suspension treated with Tween 20 was used to obtain total lysis as a positive control. Other authors who performed hemolysis assays have also considered this and other detergents, such as Triton X-100 and Sodium Dodecyl Sulfate (SDS) as positive controls ([113], [114], [115], [116]). The negative control was a suspension of red blood cells with PBS. Each experiment was performed in triplicate at all concentrations used. The percentage of hemolysis was calculated with the following (Equation 1), where Ad: absorbance of the dilution, A0: absorbance of the blank (RBC suspension with PBS), and At: total absorbance (positive control).(1) %hemolysis=Ad−A0/At−A0x100

The test system of data set [2] is NaV1.5. Conditions: HEK-293 cells, racemic (R/S) compound, NaV1.5 open state; ref [40]; read-out: Reported IC50 NaV1.5; cited from earlier work.
The subject of a further data set is virtual atria with AF. On the set-up: method as in PMID 37475475, PMID 38870348. Conditions: ref [74], [75]; cited from earlier work.

T1 sequence (P22460 whole entry): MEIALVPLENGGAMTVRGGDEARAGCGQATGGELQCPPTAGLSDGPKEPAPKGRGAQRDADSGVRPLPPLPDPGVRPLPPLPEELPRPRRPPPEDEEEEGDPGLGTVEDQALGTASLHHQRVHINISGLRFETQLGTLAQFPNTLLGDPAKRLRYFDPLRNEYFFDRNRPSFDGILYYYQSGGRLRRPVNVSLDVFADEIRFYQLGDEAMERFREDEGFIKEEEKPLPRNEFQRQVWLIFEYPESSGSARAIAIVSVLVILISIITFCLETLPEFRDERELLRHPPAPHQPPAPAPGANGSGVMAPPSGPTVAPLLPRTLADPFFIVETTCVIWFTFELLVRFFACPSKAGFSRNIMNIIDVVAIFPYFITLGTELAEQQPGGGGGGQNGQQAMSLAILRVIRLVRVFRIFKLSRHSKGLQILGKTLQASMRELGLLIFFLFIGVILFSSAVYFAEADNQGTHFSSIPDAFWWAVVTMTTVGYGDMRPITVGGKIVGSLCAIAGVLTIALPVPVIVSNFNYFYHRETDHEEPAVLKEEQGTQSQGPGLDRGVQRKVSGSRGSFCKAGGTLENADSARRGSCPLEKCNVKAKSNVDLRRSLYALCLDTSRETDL
T2 sequence (Q14524 whole entry R1027Q): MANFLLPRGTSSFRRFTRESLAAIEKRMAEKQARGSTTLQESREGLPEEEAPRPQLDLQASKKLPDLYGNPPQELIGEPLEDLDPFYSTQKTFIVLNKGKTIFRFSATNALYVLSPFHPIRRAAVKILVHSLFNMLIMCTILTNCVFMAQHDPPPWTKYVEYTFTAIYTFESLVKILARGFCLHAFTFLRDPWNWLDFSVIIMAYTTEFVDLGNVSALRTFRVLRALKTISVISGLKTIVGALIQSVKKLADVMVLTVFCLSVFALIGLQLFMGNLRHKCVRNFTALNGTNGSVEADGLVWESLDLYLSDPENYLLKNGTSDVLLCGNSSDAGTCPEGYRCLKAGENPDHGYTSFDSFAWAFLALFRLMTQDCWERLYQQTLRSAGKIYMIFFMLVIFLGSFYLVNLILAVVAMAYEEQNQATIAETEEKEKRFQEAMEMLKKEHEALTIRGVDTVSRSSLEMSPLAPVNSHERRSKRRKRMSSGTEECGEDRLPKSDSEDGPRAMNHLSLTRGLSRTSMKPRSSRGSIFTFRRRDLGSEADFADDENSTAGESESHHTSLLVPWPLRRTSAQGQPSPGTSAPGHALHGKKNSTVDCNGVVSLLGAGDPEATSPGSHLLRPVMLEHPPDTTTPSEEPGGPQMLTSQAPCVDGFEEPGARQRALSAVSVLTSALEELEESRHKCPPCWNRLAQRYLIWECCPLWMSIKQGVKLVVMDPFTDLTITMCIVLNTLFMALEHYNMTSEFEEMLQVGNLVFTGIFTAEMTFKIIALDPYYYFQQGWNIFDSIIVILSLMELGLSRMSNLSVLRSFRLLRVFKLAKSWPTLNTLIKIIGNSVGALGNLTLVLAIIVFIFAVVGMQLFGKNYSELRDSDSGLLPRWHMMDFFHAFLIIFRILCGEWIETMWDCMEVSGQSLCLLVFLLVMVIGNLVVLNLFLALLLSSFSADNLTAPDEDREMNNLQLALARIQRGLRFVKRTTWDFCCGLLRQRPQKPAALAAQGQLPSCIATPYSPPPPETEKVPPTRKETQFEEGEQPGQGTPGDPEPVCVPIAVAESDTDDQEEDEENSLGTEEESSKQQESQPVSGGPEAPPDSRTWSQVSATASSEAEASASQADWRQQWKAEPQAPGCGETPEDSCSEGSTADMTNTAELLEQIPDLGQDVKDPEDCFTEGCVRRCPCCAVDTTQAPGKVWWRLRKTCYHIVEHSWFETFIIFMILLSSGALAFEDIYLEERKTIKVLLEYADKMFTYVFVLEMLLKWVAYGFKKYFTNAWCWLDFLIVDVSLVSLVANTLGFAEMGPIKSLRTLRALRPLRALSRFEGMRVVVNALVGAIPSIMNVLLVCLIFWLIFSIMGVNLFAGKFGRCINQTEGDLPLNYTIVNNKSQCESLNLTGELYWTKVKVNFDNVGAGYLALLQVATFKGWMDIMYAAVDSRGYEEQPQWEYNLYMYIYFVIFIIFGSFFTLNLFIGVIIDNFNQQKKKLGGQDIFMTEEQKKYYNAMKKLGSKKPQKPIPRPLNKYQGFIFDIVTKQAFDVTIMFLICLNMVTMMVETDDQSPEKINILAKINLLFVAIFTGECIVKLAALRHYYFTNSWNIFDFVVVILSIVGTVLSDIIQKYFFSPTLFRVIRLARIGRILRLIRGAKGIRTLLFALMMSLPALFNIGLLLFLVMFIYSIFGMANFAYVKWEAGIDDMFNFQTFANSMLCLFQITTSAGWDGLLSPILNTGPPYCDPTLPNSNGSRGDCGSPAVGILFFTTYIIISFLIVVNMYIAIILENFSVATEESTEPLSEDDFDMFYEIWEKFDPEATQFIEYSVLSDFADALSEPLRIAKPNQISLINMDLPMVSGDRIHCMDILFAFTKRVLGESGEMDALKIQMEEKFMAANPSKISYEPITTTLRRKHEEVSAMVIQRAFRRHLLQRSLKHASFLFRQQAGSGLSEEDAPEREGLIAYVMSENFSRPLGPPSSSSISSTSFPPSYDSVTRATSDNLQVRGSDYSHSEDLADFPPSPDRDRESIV
Chain of human TASK-1 (O14649 whole entry): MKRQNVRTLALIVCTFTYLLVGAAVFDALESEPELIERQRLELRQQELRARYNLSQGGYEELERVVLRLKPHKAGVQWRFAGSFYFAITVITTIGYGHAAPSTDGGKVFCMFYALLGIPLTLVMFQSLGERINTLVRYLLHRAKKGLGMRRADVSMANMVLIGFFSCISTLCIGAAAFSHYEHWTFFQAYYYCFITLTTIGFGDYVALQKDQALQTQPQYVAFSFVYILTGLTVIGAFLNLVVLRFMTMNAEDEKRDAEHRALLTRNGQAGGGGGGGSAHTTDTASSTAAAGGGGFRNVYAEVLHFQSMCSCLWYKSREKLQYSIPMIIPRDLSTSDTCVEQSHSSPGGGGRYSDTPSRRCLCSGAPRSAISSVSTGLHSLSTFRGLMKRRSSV

Take `CCCCN1CCCCC1C(=O)Nc1c(C)cccc1C` (stereo not shown) [Bupivacaine, bupivacaine]: the IC50 in the data set with TASK-1 is 12.1 µM; in the data set on KV1.5 (racemic (R/S) compound), 31 µM; with NaV1.5 [1] it was 4.5 µM.

Take `CCCCN(CCCC)CC(=O)Nc1ccccc1C` [Compound 6a, 2-(dibutylamine)-N-(o-tolyl)acetamide]: the inhibition at 100 µM at h KV1.5 is 12.3 to 35.7%; on human TASK-1, 88.3 ± 6.57%.

Regarding `CCCCN(CCCC)CC(=O)Nc1ccccc1CC` [Compound 6b, 2-(dibutylamine)-N-(2-ethylphenyl)acetamide], the inhibition at 100 µM against h KV1.5 fell in the range of 12.3 to 35.7%.

On h KV1.5, `CCCCN(CCCC)CC(=O)Nc1cc(C)cc(C)c1` [Compound 6c, 2-(dibutylamine)-N-(3,5-dimethylphenyl)acetamide] gave an inhibition at 100 µM of 12.3 to 35.7%.

`Cc1cc(C)cc(NC(=O)CN(C(C)C)C(C)C)c1` [Compound 6d, 2-(diisopropylamine)-N-(3,5-dimetylphenyl)acetamide] returned an inhibition at 100 µM against h KV1.5 of 12.3 ± 6.01%.

In the case of `CCCCN(CCCC)CC(=O)Nc1ccc(OC)cc1` [Compound 6e, 2-(dibutylamine)-N-(4-methoxiphenyl)acetamide], the inhibition at 100 µM against h KV1.5 is 42.2 ± 21.2%; against h NaV1.5 it was 81.2 ± 19%. The Hemolytic effect entry with human erythrocytes is reported as “no hemolytic effect”.

Turning to `CCCCN(CCCC)C(C)C(=O)Nc1ccc(OC)cc1` (stereo not shown) [Compound 7a, 2-(dibutylamine)-N-(4-methoxiphenyl)propanamide], the inhibition at 100 µM against h KV1.5 came to 38 ± 16.1%; on h NaV1.5, 11.9 ± 15%. In addition, in the data set with human erythrocytes, the Hemolytic effect entry is recorded as “no hemolytic effect”.

Turning to `CCCCN(CCCC)C(C)C(=O)Nc1ccccc1C` (stereo not shown) [Compound 7b, 2-(dibutylamine)-N-(o-tolyl)propanamide], the inhibition at 100 µM is 36.9 ± 13.6% against h KV1.5 and 58.9 ± 21.2% against h NaV1.5. Besides, in the data set on human erythrocytes, the Hemolytic effect entry is listed as “no hemolytic effect”.

For `CCCCN(CCCC)C(C)C(=O)Nc1cccc2ccccc12` (stereo not shown) [Compound 7c, 2-(dibutylamine)-N-(naphthalen-1-yl)propanamide], the inhibition at 100 µM against h KV1.5 turned out to be 35.7 ± 18.3%; at h NaV1.5, 31.1 ± 13.7%; at human TASK-1 it was 89.3 ± 6.56%. Also, in the data set with human erythrocytes, the Hemolytic effect entry is on record as “no hemolytic effect”.

`CCCCN(CCCC)C(C)C(=O)Nc1cc(C)cc(C)c1` (stereo not shown) [Compound 7d, 2-(dibutylamine)-N-(3,5-dimetilphenyl)propanamide]: the inhibition at 100 µM against h KV1.5 was in the range of 12.3 to 35.7%.

Regarding `CCCN1CCCC[C@H]1C(=O)Nc1c(C)cccc1C` [Ropivacaine, ropivacaine], the IC50 with TASK-1 is 17.6 µM; in the data set with NaV1.5 [2], 322 µM.

With `CCCCc1oc2ccccc2c1C(=O)c1cc(I)c(OCCN(CC)CC)c(I)c1` [amiodarone], the “Cardioversion efficacy in other simulation studies” value (shortened to “Cardioversion efficacy”) in the data set with virtual atria with AF is 57–80%.

In the case of `O=C(NCC1CCCCN1)c1cc(OCC(F)(F)F)ccc1OCC(F)(F)F` (stereo not shown) [flecainide], the “Cardioversion efficacy” value in the data set on virtual atria with AF was 48–70%.

Regarding `CCCN1CCCC[C@H]1C(=O)Nc1c(C)cccc1C` [ropivacaineS], the IC50 with KV1.5 (S enantiomer) is 129 µM.

In the case of `COc1ccc(CCO[C@@H]2CCCC[C@H]2N2CC[C@@H](O)C2)cc1OC` [vernakalant], the “Cardioversion efficacy” value in the data set on virtual atria with AF is 42–57%.

A word on the IC50: it is the concentration that inhibits the measured activity by half. What is called inhibition is the change of the read-out against control, counted positive when it falls. The low end stands for little suppression, the high end for strong suppression.
